In patent US20130116241A1, “NOVEL INHIBITOR COMPOUNDS OF PHOSPHODIESTERASE TYPE 10A” (AbbVie Inc., priority 2011, published 2013):

Molecular target: human PDE10A (UniProt Q9Y233)
Experiment: Measurement of PDE activity (recombinant enzyme, HTRF cAMP kit)
Type: biochemical
Settings: Table 1, substrate 20 nM for PDE10, 60 minutes at 29 C, read-out: IC50
Description: The recombinant PDE proteins are used in in vitro enzymatic reaction for measurement of PDE activity. These recombinant proteins, including PDE10A (human, rat and mouse PDE10) and isoforms of PDEs 1, 3, 4, and 5, were purchased from commercial vendor BPS Bioscience. The enzymatic activity of PDEs was determined by cAMP measurement kit from CisBio (IBA) using HTRF technology.
The PDE enzymatic reaction was carried out in assay buffer (20 mM Tris-HCl pH7.5, 10 mM MgCl2, 0.1% bovine serum albumin) containing enzyme and substrate. The PDE enzymes concentration ranged from 10 pM-250 pM, depending on each enzyme's specific activity. The substrate cyclic nucleotide (cAMP or cGMP) concentration used in the assay was 20 nM for PDE10, and 100 nM for other PDEs. The inhibitory effect of compound was determined by incubating various concentration of inhibitor in the enzymatic assay. Typically, compound was serial diluted in DMSO then further diluted in assay buffer. Next, the compound at varying concentration was mixed with PDE enzyme. The reaction was initiated by addition of cyclic nucleotide substrate, and incubated for 60 minutes at 29 C. The reaction was stopped by addition of lysis buffer from assay kit. The cAMP-d2 and anti-cAMP cryptate in the lysis buffer detected the level of cAMP left from the PDE hydrolysis reaction. The PDE activity is reversely correlated with the amount of cAMP left in the reaction and can be converted to the percent activity of an uninhibited control (100%). Thus, IC50 value of inhibitor can be obtained by plotting inhibitor concentration against PDE activity at that concentration.

Sequence of human PDE10A (Q9Y233 290-1055 limits assumed): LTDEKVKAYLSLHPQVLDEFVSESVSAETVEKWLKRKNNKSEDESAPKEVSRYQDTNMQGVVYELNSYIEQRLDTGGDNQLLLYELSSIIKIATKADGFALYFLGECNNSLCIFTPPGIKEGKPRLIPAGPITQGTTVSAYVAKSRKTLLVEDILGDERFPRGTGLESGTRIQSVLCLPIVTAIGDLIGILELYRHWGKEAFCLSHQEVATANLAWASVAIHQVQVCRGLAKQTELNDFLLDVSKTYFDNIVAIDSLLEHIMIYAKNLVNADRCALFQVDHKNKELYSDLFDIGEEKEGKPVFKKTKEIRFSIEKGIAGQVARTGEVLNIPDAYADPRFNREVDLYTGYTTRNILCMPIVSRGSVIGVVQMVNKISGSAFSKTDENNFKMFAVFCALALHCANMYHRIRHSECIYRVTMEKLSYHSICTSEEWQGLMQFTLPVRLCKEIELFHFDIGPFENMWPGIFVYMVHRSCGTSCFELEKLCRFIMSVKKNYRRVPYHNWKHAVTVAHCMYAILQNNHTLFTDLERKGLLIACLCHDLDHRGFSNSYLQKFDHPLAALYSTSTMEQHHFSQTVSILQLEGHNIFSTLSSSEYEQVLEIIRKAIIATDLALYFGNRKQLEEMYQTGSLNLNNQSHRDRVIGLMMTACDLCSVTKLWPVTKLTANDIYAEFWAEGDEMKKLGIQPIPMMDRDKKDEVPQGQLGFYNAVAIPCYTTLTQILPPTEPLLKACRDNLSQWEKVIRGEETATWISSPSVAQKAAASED

| Molecule | IC50 [nM] |
| --- | --- |
| 8-(2-Fluoro-5-methoxyphenyl)-2-[2-(quinolin-2-yl)ethyl]phthalazin-1(2H)-one [Example 164] | 100 to 200 |
| O=c1c2c(-c3ccncc3)cccc2ccn1C1CC1c1ccc2ccccc2n1 (racemic) [Example 222, anti (rac) 8-(Pyridin-4-yl)-2-(2-(quinolin-2-yl)cyclopropyl)isoquinolin-1(2H)-one] | < 100 |
| O=c1c2c(-c3ccncc3)csc2ccn1C1CC1c1ccc2ccccc2n1 (racemic) [Example 224, anti (rac) 3-(Pyridin-4-yl)-5-(2-(quinolin-2-yl)cyclopropyl)thieno[3,2-c]pyridin-4(5H)-one] | < 100 |
| O=c1c2c(-c3ccncc3)cccc2cnn1C1CC1c1ccc2ccccc2n1 (racemic) [Example 226, anti (rac) 8-Pyridin-4-yl-2-(2-quinolin-2-yl-cyclopropyl)-2H-phthalazin-1-one 2,2,2,-trifluoroacetate] | < 100 |
| O=c1c2c(NC3COC3)cccc2ccn1[C@@H]1C[C@H]1c1ccc2ccccc2n1 (racemic) [Example 235, anti 8-(Oxetan-3-ylamino)-2-(2-(quinolin-2-yl)cyclopropyl)isoquinolin-1(2H)-one] | < 100 |
| O=c1c2c(-c3cncnc3)cccc2ccn1[C@@H]1C[C@H]1c1ccc2ccccc2n1 (racemic) [Example 240, anti 8-(pyrimidin-5-yl)-2-(2-(quinolin-2-yl)cyclopropyl)isoquinolin-1(2H)-one] | < 100 |
| O=c1c2c(-c3ccnnc3)coc2ccn1[C@@H]1C[C@H]1c1ccc2ccccc2n1 (relative stereo) [Example 232, anti 3-(Pyridazin-4-yl)-5-(2-(quinolin-2-yl)cyclopropyl)furo[3,2-c]pyridin-4(5H)-one] | < 100 |
| O=c1c2c(-c3ccncc3)coc2ccn1[C@@H]1C[C@H]1c1ccc2ccccc2n1 (relative stereo) [Example 233, anti 3-(pyridin-4-yl)-5-(2-(quinolin-2-yl)cyclopropyl)furo[3,2-c]pyridin-4(5H)-one] | < 100 |
| Cn1cc(-c2cccc3ccn([C@@H]4C[C@H]4c4ccc5ccccc5n4)c(=O)c23)cn1 (relative stereo) [Example 241, anti 8-(1-methyl-1H-pyrazol-4-yl)-2-(2-(quinolin-2-yl)cyclopropyl)isoquinolin-1(2H)-one] | < 100 |
| O=c1c2c(-c3ccncc3F)cccc2ccn1[C@@H]1C[C@H]1c1ccc2ccccc2n1 (relative stereo) [Example 242, anti 8-(3-fluoropyridin-4-yl)-2-(2-(quinolin-2-yl)cyclopropyl)isoquinolin-1(2H)-one] | < 100 |
| O=c1c2c(-c3ccnc(F)c3)cccc2ccn1[C@@H]1C[C@H]1c1ccc2ccccc2n1 (relative stereo) [Example 243, anti 8-(2-fluoropyridin-4-yl)-2-(2-(quinolin-2-yl)cyclopropyl)isoquinolin-1(2H)-one] | < 100 |
| N#CC1CCN(c2cccc3ccn([C@@H]4C[C@H]4c4ccc5ccccc5n4)c(=O)c23)CC1 (relative stereo) [Example 247, anti 1-(1-oxo-2-(2-(quinolin-2-yl)cyclopropyl)-1,2-dihydroisoquinolin-8-yl)piperidine-4-carbonitrile] | < 100 |
| COC1CCN(c2cccc3ccn([C@@H]4C[C@H]4c4ccc5ccccc5n4)c(=O)c23)CC1 (relative stereo) [Example 252, anti 8-(4-methoxypiperidin-1-yl)-2-(2-(quinolin-2-yl)cyclopropyl)isoquinolin-1(2H)-one (2E)-but-2-enedioate] | < 100 |
| O=c1c2c(N3CCC(O)CC3)cccc2ccn1[C@@H]1C[C@H]1c1ccc2ccccc2n1 (relative stereo) [Example 253, anti 8-(4-hydroxypiperidin-1-yl)-2-(2-(quinolin-2-yl)cyclopropyl)isoquinolin-1(2H)-one (2E)-but-2-enedioate] | < 100 |
| O=c1c2c(-c3ccc(F)cc3)cccc2ccn1[C@@H]1C[C@H]1c1ccc2ccccc2n1 (relative stereo) [Example 267, anti 8-(4-fluorophenyl)-2-(2-(quinolin-2-yl)cyclopropyl)isoquinolin-1(2H)-one] | < 100 |
| O=c1c2c(N3CCOCC3)cccc2ccn1[C@@H]1C[C@H]1c1ccc2cc(F)ccc2n1 (relative stereo) [Example 271, anti 2-(2-(6-fluoroquinolin-2-yl)cyclopropyl)-8-morpholinoisoquinolin-1(2H)-one] | < 100 |
| O=c1c2c(-c3cncnc3)cccc2ccn1[C@@H]1C[C@H]1c1ccc2cc(F)ccc2n1 (relative stereo) [Example 273, anti 2-(2-(6-fluoroquinolin-2-yl)cyclopropyl)-8-(pyrimidin-5-yl)isoquinolin-1(2H)-one] | < 100 |

| Molecule | IC50 [nM] |
| --- | --- |
| O=c1c2c(-c3ccncc3)ccnc2cnn1[C@@H]1C[C@H]1c1ccc2ccccc2n1 (relative stereo) [Example 277, anti 4-(pyridin-4-yl)-6-(2-(quinolin-2-yl)cyclopropyl)pyrido[2,3-d]pyridazin-5(6H)-one] | < 100 |
| O=c1c2c(-c3ccncc3)cccc2cnn1[C@@H]1C[C@H]1c1ccc2cc(F)ccc2n1 (relative stereo) [compound 278] | < 100 |
| O=c1c2c(-c3ccnc(F)c3)csc2ccn1[C@@H]1C[C@H]1c1ccc2ccccc2n1 (relative stereo) [compound 286] | < 100 |
| O=c1c2c(-c3ccncc3)csc2ccn1C1CC1c1ccc2ccccc2n1 (single isomer, unassigned) [293a] | < 100 |
| O=c1c2c(-c3ccncc3)csc2ccn1C1CC1c1ccc2ccccc2n1 (single isomer, unassigned) [293b] | < 100 |
| O=c1c2c(-c3ccnnc3)cccc2ccn1C1CC1c1ccc2ccccc2n1 (single isomer, unassigned) [Example 236, anti (−) 8-(pyridazin-4-yl)-2-(2-(quinolin-2-yl)cyclopropyl)isoquinolin-1(2H)-one] | < 100 |
| O=c1c2c(-c3ccc(F)nc3)cccc2ccn1C1CC1c1ccc2ccccc2n1 (single isomer, unassigned) [Example 237, anti (−) 8-(6-fluoropyridin-3-yl)-2-(2-(quinolin-2-yl)cyclopropyl)isoquinolin-1(2H)-one] | < 100 |
| O=c1c2c(-c3ccnc(F)c3)cccc2ccn1C1CC1c1ccc2ccccc2n1 (single isomer, unassigned) [Example 238, anti (−) 8-(2-fluoropyridin-4-yl)-2-(2-(quinolin-2-yl)cyclopropyl)isoquinolin-1(2H)-one] | < 100 |
| O=c1c2c(-c3cncnc3)cccc2ccn1C1CC1c1ccc2ccccc2n1 (single isomer, unassigned) [Example 240a, anti (+) 8-(pyrimidin-5-yl)-2-(2-(quinolin-2-yl)cyclopropyl)isoquinolin-1(2H)-one] | < 100 |
| O=c1c2c(N3CCOCC3)cccc2ccn1C1CC1c1ccc2ccccc2n1 (single isomer, unassigned) [Example 246a, anti (+) 8-morpholino-2-(2-(quinolin-2-yl)cyclopropyl)isoquinolin-1(2H)-one] | < 100 |
| O=c1c2c(N3CCOCC3)cccc2ccn1C1CC1c1ccc2ccccc2n1 (single isomer, unassigned) [Example 246b, anti (−) 8-morpholino-2-(2-(quinolin-2-yl)cyclopropyl)isoquinolin-1(2H)-one] | < 100 |
| O=c1c2c(N3CCC4(COC4)C3)cccc2ccn1C1CC1c1ccc2ccccc2n1 (single isomer, unassigned) [Example 258, anti (−) 2-(2-(quinolin-2-yl)cyclopropyl)-8-(2-oxa-6-azaspiro[3.4]octan-6-yl)isoquinolin-1(2H)-one] | < 100 |
| O=c1c2c(N3CC4COCC4C3)cccc2ccn1C1CC1c1ccc2ccccc2n1 (single isomer, unassigned) [Example 259, anti (−) 8-(dihydro-1H-furo[3,4-c]pyrrol-5(3H,6H,6aH)-yl)-2-(2-(quinolin-2-yl)cyclopropyl)isoquinolin-1(2H)-one] | < 100 |
| O=c1c2c(N3CCC(F)(F)CC3)cccc2ccn1C1CC1c1ccc2ccccc2n1 (single isomer, unassigned) [Example 260, anti (−) 8-(4,4-difluoropiperidin-1-yl)-2-(2-(quinolin-2-yl)cyclopropyl)isoquinolin-1(2H)-one] | < 100 |
| COc1ccc(-c2cccc3ccn(C4CC4c4ccc5ccccc5n4)c(=O)c23)cc1 (single isomer, unassigned) [Example 270, anti (−) 8-(4-methoxyphenyl)-2-(2-(quinolin-2-yl)cyclopropyl)isoquinolin-1(2H)-one] | < 100 |
| O=c1c2c(-c3cncnc3)cccc2c(Cl)cn1C1CC1c1ccc2ccccc2n1 (single isomer, unassigned) [Example 276, anti (−)-4-chloro-8-(pyrimidin-5-yl)-2-(2-(quinolin-2-yl)cyclopropyl)isoquinolin-1(2H)-one] | < 100 |
| O=c1c2c(-c3ccncc3)cccc2ccn1C1CC1c1ccc2ccccc2n1 (single isomer, unassigned; (+)) [Example 222a, (+) 8-(pyridin-4-yl)-2-(2-(quinolin-2-yl)cyclopropyl)isoquinolin-1(2H)-one] | < 100 |
